Laboratory results: paper PMC9067983, “Identification of highly selective type II kinase inhibitors with chiral peptidomimetic tails” (Journal of Enzyme Inhibition and Medicinal Chemistry, 2022)
Where a SMILES comes first, the peptide text is derived from it. [ ]: non-standard residue; d: D form. The star is where a group is joined. X1 = Cc1ccc(Nc2ncc3c(n2)N(C)C(=O)N(c2cc(C(=O)*)ccc2C)C3)cn1; Aib = CC(C)(N)C(=O)O

What was measured:
Test in all cases: kinase selectivity profiling
Assay type in all cases: biochemical
Conditions in all cases: 10µM ATP, read-out: % inhibition (relative to DMSO)
MAPKAPK5/PRAK = biological target: T1, MAPKAPK5/PRAK (Homo sapiens, UniProt Q8IW41)
T1 construct: purchased Reaction Biology Corp
Protocol: (§1) Full panel kinase profiling and kinase IC50 measurement were performed by using Reaction Biology Corp. (San Diego, USA).

NEK5 = biological target: T2, NEK5 (Homo sapiens, UniProt Q6P3R8)
T2 construct: purchased Reaction Biology Corp
Protocol: as §1

LATS2 = biological target: T3, LATS2 (Homo sapiens, UniProt Q9NRM7)
T3 construct: purchased Reaction Biology Corp
Protocol: as §1

EPHB4 = biological target: T4, EPHB4 (Homo sapiens, UniProt P54760)
T4 construct: purchased Reaction Biology Corp
Protocol: as §1

Aurora B = biological target: T5, Aurora B (Homo sapiens, UniProt Q96GD4)
T5 construct: purchased Reaction Biology Corp
Protocol: as §1

ASK1/MAP3K5 = biological target: T6, ASK1/MAP3K5 (Homo sapiens, UniProt Q99683)
T6 construct: purchased Reaction Biology Corp
Protocol: as §1

MAPKAPK2 = biological target: T7, MAPKAPK2 (Homo sapiens, UniProt P49137)
T7 construct: purchased Reaction Biology Corp
Protocol: as §1

HIPK3 = biological target: T8, HIPK3 (Homo sapiens, UniProt Q9H422)
T8 construct: purchased Reaction Biology Corp
Protocol: as §1

BMX/ETK = biological target: T9, BMX/ETK (Homo sapiens, UniProt P51813)
T9 construct: purchased Reaction Biology Corp
Protocol: as §1

CAMK1g = biological target: T10, CAMK1g (Homo sapiens, UniProt Q96NX5)
T10 construct: purchased Reaction Biology Corp
Protocol: as §1

MAPKAPK3 = biological target: T11, MAPKAPK3 (Homo sapiens, UniProt Q16644)
T11 construct: purchased Reaction Biology Corp
Protocol: as §1

EPHA2 = biological target: T12, EPHA2 (Homo sapiens, UniProt P29317)
T12 construct: purchased Reaction Biology Corp
Protocol: as §1

GRK3 = biological target: T13, GRK3 (Homo sapiens, UniProt P35626)
T13 construct: purchased Reaction Biology Corp
Protocol: as §1

MST4 = biological target: T14, MST4 (Homo sapiens, UniProt Q9P289)
T14 construct: purchased Reaction Biology Corp
Protocol: as §1

PLK2 = biological target: T15, PLK2 (Homo sapiens, UniProt Q9NYY3)
T15 construct: purchased Reaction Biology Corp
Protocol: as §1

DMPK2 = biological target: T16, DMPK2 (Homo sapiens, UniProt Q6DT37)
T16 construct: purchased Reaction Biology Corp
Protocol: as §1

CK1g2 = biological target: T17, CK1g2 (Homo sapiens, UniProt P78368)
T17 construct: purchased Reaction Biology Corp
Protocol: as §1

ARAF = biological target: T18, ARAF (Homo sapiens, UniProt P10398)
T18 construct: purchased Reaction Biology Corp
Protocol: as §1

JAK1 = biological target: T19, JAK1 (Homo sapiens, UniProt P23458)
T19 construct: purchased Reaction Biology Corp
Protocol: as §1

ERK2/MAPK1 = biological target: T20, ERK2/MAPK1 (Homo sapiens, UniProt P28482)
T20 construct: purchased Reaction Biology Corp
Protocol: as §1

IKKa/CHUK = biological target: T21, IKKa/CHUK (Homo sapiens, UniProt O15111)
T21 construct: purchased Reaction Biology Corp
Protocol: as §1

TSSK2 = biological target: T22, TSSK2 (Homo sapiens, UniProt Q96PF2)
T22 construct: purchased Reaction Biology Corp
Protocol: as §1

TBK1 = biological target: T23, TBK1 (Homo sapiens, UniProt Q9UHD2)
T23 construct: purchased Reaction Biology Corp
Protocol: as §1

MEK2 = biological target: T24, MEK2 (Homo sapiens, UniProt P36507)
T24 construct: purchased Reaction Biology Corp
Protocol: as §1

TSSK3/STK22C = biological target: T25, TSSK3/STK22C (Homo sapiens, UniProt Q96PN8)
T25 construct: purchased Reaction Biology Corp
Protocol: as §1

CDK6/cyclin D1 = biological target: T26, CDK6/cyclin D1 (Homo sapiens, UniProt Q00534)
T26 construct: purchased Reaction Biology Corp
Protocol: as §1

PRKX = biological target: T27, PRKX (Homo sapiens, UniProt P51817)
T27 construct: purchased Reaction Biology Corp
Protocol: as §1

VRK1 = biological target: T28, VRK1 (Homo sapiens, UniProt Q99986)
T28 construct: purchased Reaction Biology Corp
Protocol: as §1

OSR1/OXSR1 = biological target: T29, OSR1/OXSR1 (Homo sapiens, UniProt O95747)
T29 construct: purchased Reaction Biology Corp
Protocol: as §1

CAMK2g = biological target: T30, CAMK2g (Homo sapiens, UniProt Q13555)
T30 construct: purchased Reaction Biology Corp
Protocol: as §1

SGK2 = biological target: T31, SGK2 (Homo sapiens, UniProt Q9HBY8)
T31 construct: purchased Reaction Biology Corp
Protocol: as §1

CDK4/cyclin D1 = biological target: T32, CDK4/cyclin D1 (Homo sapiens, UniProt P11802)
T32 construct: purchased Reaction Biology Corp
Protocol: as §1

WNK3 = biological target: T33, WNK3 (Homo sapiens, UniProt Q9BYP7)
T33 construct: purchased Reaction Biology Corp
Protocol: as §1

GRK2 = biological target: T34, GRK2 (Homo sapiens, UniProt P25098)
T34 construct: purchased Reaction Biology Corp
Protocol: as §1

GRK7 = biological target: T35, GRK7 (Homo sapiens, UniProt Q8WTQ7)
T35 construct: purchased Reaction Biology Corp
Protocol: as §1

MYO3A = biological target: T36, MYO3A (Homo sapiens, UniProt Q8NEV4)
T36 construct: purchased Reaction Biology Corp
Protocol: as §1

PKCnu/PRKD3 = biological target: T37, PKCnu/PRKD3 (Homo sapiens, UniProt O94806)
T37 construct: purchased Reaction Biology Corp
Protocol: as §1

ALK6/BMPR1B = biological target: T38, ALK6/BMPR1B (Homo sapiens, UniProt O00238)
T38 construct: purchased Reaction Biology Corp
Protocol: as §1

ALK4/ACVR1B = biological target: T39, ALK4/ACVR1B (Homo sapiens, UniProt P36896)
T39 construct: purchased Reaction Biology Corp
Protocol: as §1

SIK3 = biological target: T40, SIK3 (Homo sapiens, UniProt Q9Y2K2)
T40 construct: purchased Reaction Biology Corp
Protocol: as §1

ZAK/MLTK = biological target: T41, ZAK/MLTK (Homo sapiens, UniProt Q9NYL2)
T41 construct: purchased Reaction Biology Corp
Protocol: as §1

ALK5/TGFBR1 = biological target: T42, ALK5/TGFBR1 (Homo sapiens, UniProt P36897)
T42 construct: purchased Reaction Biology Corp
Protocol: as §1

T18 sequence (P10398 whole entry): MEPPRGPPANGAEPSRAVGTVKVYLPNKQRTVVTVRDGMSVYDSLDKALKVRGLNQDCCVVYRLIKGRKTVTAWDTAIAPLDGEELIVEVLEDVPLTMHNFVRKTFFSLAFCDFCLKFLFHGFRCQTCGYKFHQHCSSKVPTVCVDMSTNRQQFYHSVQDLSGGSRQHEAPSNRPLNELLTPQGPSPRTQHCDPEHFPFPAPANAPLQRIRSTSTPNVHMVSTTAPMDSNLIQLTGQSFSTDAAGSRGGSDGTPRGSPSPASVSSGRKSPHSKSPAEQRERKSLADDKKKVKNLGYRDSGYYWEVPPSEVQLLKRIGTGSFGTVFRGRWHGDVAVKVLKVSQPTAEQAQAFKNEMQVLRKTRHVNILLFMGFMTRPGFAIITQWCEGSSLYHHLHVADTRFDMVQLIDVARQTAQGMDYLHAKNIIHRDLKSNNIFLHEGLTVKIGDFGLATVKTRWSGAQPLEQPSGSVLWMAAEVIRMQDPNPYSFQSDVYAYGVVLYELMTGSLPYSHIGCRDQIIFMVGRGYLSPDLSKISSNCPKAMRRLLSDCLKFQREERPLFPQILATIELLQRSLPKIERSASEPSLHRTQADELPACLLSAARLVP
T15 sequence (Q9NYY3 whole entry): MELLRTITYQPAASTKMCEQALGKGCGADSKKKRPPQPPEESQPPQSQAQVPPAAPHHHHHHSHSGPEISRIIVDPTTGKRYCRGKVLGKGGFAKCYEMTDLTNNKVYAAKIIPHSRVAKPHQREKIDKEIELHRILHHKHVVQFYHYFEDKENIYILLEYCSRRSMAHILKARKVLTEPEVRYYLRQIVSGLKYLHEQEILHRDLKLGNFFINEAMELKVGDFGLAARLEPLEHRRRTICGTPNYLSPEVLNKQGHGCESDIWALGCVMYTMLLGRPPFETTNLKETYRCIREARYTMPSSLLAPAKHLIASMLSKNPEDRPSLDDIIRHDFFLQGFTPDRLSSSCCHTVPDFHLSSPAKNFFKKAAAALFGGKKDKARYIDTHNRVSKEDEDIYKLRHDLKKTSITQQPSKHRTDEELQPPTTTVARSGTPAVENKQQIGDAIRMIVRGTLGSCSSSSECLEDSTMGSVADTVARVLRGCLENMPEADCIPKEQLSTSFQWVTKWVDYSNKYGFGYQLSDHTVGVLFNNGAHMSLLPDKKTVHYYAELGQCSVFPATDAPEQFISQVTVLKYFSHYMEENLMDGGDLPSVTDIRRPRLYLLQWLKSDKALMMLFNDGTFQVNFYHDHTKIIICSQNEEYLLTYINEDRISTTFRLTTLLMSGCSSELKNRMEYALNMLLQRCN
T24 sequence (P36507 whole entry): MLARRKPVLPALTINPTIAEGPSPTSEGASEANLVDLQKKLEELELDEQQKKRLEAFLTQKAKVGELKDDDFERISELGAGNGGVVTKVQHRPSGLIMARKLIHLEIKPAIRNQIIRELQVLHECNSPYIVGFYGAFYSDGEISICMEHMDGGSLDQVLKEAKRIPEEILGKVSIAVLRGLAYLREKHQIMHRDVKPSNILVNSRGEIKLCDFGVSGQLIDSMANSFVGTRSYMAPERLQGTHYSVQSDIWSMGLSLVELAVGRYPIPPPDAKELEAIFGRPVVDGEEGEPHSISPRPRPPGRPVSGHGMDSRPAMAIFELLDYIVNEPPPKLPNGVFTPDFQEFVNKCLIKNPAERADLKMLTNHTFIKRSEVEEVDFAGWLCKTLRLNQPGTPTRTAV
T12 sequence (P29317 24-976): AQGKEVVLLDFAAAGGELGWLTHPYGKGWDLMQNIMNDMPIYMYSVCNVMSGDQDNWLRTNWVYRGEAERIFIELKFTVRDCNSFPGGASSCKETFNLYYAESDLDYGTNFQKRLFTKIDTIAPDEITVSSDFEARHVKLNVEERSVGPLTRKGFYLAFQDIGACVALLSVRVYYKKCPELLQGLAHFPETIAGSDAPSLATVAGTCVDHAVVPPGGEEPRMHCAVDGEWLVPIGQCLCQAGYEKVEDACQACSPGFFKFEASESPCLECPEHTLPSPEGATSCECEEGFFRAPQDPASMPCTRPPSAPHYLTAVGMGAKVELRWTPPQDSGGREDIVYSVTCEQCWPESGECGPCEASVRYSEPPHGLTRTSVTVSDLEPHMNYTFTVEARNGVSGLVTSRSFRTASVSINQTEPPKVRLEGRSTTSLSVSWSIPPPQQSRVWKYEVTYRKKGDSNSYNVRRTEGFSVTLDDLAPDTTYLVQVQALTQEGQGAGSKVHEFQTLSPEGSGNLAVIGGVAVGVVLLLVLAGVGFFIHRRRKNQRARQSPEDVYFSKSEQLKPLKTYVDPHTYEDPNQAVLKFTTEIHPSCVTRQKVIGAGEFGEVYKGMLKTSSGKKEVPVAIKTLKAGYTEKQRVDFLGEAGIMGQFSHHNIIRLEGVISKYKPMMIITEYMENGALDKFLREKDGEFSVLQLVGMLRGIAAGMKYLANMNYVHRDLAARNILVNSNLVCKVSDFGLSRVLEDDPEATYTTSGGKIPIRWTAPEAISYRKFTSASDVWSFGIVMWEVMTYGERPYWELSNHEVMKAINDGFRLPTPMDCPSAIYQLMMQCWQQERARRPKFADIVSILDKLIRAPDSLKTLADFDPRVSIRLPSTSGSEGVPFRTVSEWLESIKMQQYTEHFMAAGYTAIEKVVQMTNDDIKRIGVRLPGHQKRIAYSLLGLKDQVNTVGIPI
T2 sequence (Q6P3R8 whole entry): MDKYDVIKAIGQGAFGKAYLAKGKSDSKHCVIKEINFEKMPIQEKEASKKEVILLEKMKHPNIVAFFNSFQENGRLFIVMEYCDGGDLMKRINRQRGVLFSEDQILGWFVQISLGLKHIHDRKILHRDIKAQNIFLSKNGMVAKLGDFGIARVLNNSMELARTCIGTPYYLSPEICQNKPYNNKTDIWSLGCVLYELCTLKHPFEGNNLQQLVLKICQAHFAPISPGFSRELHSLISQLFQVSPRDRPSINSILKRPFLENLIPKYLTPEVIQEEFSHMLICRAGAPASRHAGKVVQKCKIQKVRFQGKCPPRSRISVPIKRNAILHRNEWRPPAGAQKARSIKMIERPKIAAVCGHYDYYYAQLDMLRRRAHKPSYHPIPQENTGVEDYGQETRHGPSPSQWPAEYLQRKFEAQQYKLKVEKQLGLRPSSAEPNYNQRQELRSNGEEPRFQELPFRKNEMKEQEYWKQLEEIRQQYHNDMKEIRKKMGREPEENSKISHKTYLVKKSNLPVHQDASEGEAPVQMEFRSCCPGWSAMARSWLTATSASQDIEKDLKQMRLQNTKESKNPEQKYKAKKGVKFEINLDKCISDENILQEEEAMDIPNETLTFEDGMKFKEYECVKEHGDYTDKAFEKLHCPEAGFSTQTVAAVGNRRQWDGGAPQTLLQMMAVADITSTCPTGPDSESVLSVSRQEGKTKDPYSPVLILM
T7 sequence (P49137 whole entry): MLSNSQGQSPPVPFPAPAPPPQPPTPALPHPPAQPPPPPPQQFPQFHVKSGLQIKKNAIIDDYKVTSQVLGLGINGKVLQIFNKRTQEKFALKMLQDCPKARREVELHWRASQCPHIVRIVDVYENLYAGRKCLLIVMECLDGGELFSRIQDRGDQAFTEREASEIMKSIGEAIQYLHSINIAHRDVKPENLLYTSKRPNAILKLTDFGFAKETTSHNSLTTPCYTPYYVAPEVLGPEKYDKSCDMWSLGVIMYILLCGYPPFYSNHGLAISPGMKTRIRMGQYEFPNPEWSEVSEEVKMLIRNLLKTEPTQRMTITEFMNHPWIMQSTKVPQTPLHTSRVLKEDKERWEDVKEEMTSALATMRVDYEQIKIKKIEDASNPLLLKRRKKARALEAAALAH
T38 sequence (O00238 14-502): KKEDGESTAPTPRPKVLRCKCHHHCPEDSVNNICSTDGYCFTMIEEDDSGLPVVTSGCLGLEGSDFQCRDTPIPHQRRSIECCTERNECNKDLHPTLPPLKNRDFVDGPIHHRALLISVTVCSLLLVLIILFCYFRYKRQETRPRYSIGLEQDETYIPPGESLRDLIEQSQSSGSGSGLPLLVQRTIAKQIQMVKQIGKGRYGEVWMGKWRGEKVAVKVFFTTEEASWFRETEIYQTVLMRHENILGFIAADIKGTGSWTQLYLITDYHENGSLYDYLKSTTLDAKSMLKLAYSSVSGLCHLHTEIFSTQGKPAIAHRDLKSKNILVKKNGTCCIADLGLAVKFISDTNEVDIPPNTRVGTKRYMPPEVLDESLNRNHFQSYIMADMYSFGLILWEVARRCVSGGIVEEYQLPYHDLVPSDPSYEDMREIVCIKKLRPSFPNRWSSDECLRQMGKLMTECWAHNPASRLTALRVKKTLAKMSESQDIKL
T30 sequence (Q13555 whole entry): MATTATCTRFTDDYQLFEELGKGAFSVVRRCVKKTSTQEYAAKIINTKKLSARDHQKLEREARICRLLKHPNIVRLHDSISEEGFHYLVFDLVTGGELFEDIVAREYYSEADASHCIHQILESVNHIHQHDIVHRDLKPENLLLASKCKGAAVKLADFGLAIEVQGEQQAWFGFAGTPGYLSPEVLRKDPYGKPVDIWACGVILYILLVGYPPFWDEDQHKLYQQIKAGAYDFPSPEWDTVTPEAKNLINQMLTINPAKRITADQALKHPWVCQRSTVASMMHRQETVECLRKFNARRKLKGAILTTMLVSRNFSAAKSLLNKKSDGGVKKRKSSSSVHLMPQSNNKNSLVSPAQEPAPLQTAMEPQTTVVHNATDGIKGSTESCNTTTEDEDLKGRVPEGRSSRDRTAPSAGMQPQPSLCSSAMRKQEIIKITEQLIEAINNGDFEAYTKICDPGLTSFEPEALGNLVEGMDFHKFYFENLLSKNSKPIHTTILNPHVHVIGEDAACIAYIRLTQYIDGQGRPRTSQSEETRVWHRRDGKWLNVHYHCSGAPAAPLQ

Q: Cc1ccc(Nc2ncc3c(n2)N(C)C(=O)N(c2cc(C(=O)N[C@H](C(=O)N4CCC[C@H]4C(=O)NC(C)(C)C(=O)N[C@@H](CC(C)C)C(=O)N(C)C)C(C)C)ccc2C)C3)cn1 [7a, (S)-N-(1-(((S)-1-(dimethylamino)-4-methyl-1-oxopentan-2-yl)amino)-2-methyl-1-oxopropan-2-yl)-1-((4-methyl-3-(1-methyl-7-((6-methylpyridin-3-yl)amino)-2-oxo-1,4-dihydropyrimido[4,5-d]pyrimidin-3(2H)-yl)benzoyl)-L-valyl)pyrrolidine-2-carboxamide] (X1-VP[Aib]L-NMe2) was tested. Which inhibition at 1 µM (MAPKAPK5/PRAK) did it give?
A: 8%

Q: What about the inhibition at 1 µM (NEK5) of the same compound?
A: 0%

Q: And the inhibition at 1 µM (LATS2)?
A: 1%

Q: And the inhibition at 1 µM (EPHB4)?
A: 16%

Q: What about the inhibition at 1 µM (Aurora B) of the same compound?
A: 6%

Q: What about the inhibition at 1 µM (ASK1/MAP3K5) of the same compound?
A: 0%

Q: What about the inhibition at 1 µM (MAPKAPK2) of the same compound?
A: 4%

Q: And the inhibition at 1 µM (HIPK3)?
A: 0%

Q: What about the inhibition at 1 µM (BMX/ETK) of the same compound?
A: 73%

Q: What about the inhibition at 1 µM (CAMK1g) of the same compound?
A: 7%

Q: And the inhibition at 1 µM (MAPKAPK3)?
A: 2%

Q: What about the inhibition at 1 µM (EPHA2) of the same compound?
A: 21%

Q: And the inhibition at 1 µM (GRK3)?
A: 0%

Q: And the inhibition at 1 µM (MST4)?
A: 0%

Q: And the inhibition at 1 µM (PLK2)?
A: 0%

Q: What about the inhibition at 1 µM (DMPK2) of the same compound?
A: 0%

Q: And the inhibition at 1 µM (CK1g2)?
A: 2%

Q: What about the inhibition at 1 µM (ARAF) of the same compound?
A: 34%

Q: What about the inhibition at 1 µM (JAK1) of the same compound?
A: 9%

Q: What about the inhibition at 1 µM (ERK2/MAPK1) of the same compound?
A: 0%

Q: What about the inhibition at 1 µM (IKKa/CHUK) of the same compound?
A: 6%

Q: What about the inhibition at 1 µM (TSSK2) of the same compound?
A: 0%

Q: What about the inhibition at 1 µM (TBK1) of the same compound?
A: 0%

Q: And the inhibition at 1 µM (MEK2)?
A: 11%

Q: And the inhibition at 1 µM (TSSK3/STK22C)?
A: 3%

Q: And the inhibition at 1 µM (CDK6/cyclin D1)?
A: 0%

Q: And the inhibition at 1 µM (PRKX)?
A: 0%

Q: What about the inhibition at 1 µM (VRK1) of the same compound?
A: 0%

Q: And the inhibition at 1 µM (OSR1/OXSR1)?
A: 6%

Q: What about the inhibition at 1 µM (CAMK2g) of the same compound?
A: 0%

Q: What about the inhibition at 1 µM (SGK2) of the same compound?
A: 0%

Q: And the inhibition at 1 µM (CDK4/cyclin D1)?
A: 0%

Q: What about the inhibition at 1 µM (WNK3) of the same compound?
A: 19%

Q: What about the inhibition at 1 µM (GRK2) of the same compound?
A: 0%

Q: What about the inhibition at 1 µM (GRK7) of the same compound?
A: 0%

Q: What about the inhibition at 1 µM (MYO3A) of the same compound?
A: 0%

Q: And the inhibition at 1 µM (PKCnu/PRKD3)?
A: 0%

Q: And the inhibition at 1 µM (ALK6/BMPR1B)?
A: 16%

Q: What about the inhibition at 1 µM (ALK4/ACVR1B) of the same compound?
A: 0%

Q: What about the inhibition at 1 µM (SIK3) of the same compound?
A: 12%

Q: What about the inhibition at 1 µM (ZAK/MLTK) of the same compound?
A: 14%

Q: And the inhibition at 1 µM (ALK5/TGFBR1)?
A: 0%
